Reference: publication PMC10235067, “Increased renal elimination of endogenous and synthetic pyrimidine nucleosides in concentrative nucleoside transporter 1 deficient mice” (Nature Communications, 2023)
One block for each compound: values may come before it.

Tests used:
[1] = system: dihydropyrimidine dehydrogenase (DPD); conditions: cited from earlier work
[2] = system: CNT1

SMILES: O=c1[nH]cc(F)c(=O)[nH]1 [5’-fluorouracil]
share of elimination mediated by DPD through hepatic metabolism [1]: 80%

concentration in urine, Slc28a1+/+ vs Slc28a1-/- ([2]; 12 h starvation): not significantly different
SMILES: Nc1ncnc2c1ncn2[C@@H]1O[C@H](CO)[C@@H](O)[C@H]1O [Adenosine]

fold increase of content in urine of Slc28a1-/- mice ([2]; Slc28a1-/- vs Slc28a1+/+, urine collected over 12 h starvation, 8-week-old mice, n = 6): 44.8 fold
SMILES: Nc1ccn([C@H]2C[C@H](O)[C@@H](CO)O2)c(=O)n1 [Deoxycytidine]
